{"source": "patent US7230033B2", "about": "“Pest control compositions and methods for their use” (United States of America as represented by the Secretary of …, priority 2000, dated 2007)", "key": {"[1]": {"system": "X. cheopis adults", "test": "Flea bioassay, treated 2-dram vials, probit analysis", "assay_type": "in vivo, Xenopsylla cheopis", "conditions": "24 h exposure; probit", "experimental": "Med. […] A control treated with acetone only was run with each series. Tick and flea susceptibility was evaluated using a modification of the disposable pipette method of Barnard et al. (J. Econ. Entomol., 74:466-69, 1981) and Maupin and […]. Med. […] The inner surface of 2-dram friction cap vials were treated with the compound/acetone solution, or acetone only as a control, and left to air-dry overnight (see also, […] et al., J. Med. […] Three to 4 holes were made in the plastic cap to allow for air exchange. Nymphal ticks and adult fleas were then placed directly into the vials using forceps. […] For each time point, if ticks and fleas were incapable of movement, maintaining normal posture, leg coordination, ability to right themselves, or any signs of life, they were considered moribund or dead."}, "[2]": {"system": "Ae. aegypti adults", "test": "Adult mosquito bottle bioassay", "assay_type": "in vivo, Aedes aegypti", "conditions": "for Slope: 24 h exposure, probit", "experimental": "(§1) Adult mosquitoes were tested using the bottle bioassay method of Brogden and McAllister (J. Am. Mosq. Control Assoc., 14:159–64, 1998) with minor modifications. Natural product extracts were two-fold serially diluted for a total of 8 concentrations ranging from 0.002% to 0.25% in 1.5 ml of acetone. Individual dilutions were added to 250 ml Wheaton glass bottles and capped. Bottles were manipulated to evenly coat all inner surfaces. The caps were removed and bottles were allowed to air-dry overnight. Once bottles were completely dry, 10–50 (in some tests 25–50) adult mosquitoes were aspirated into the bottles. Mosquitoes were held in the bottles for 24 h at 23° C. and 85% RH. Morbidity and mortality were recorded at 15, 30, 45, and 60 min and 24 hour intervals. One bottle for each replicate was treated with acetone only and served as a control. The dose-mortality data was evaluated with probit analysis, using the LdP Line software, to determine LC50 and LC90 values.\nCarvacrol was combined with compound 7, 9, or 10 at a 1:1 ratio (7.5 μl of carvacrol:7.5 μl of compound 7, 9, or 10 was added to 2,985 μl of acetone for a 0.5% solution, from which serial dilutions were made), and tested as previously described against nymphal ticks and adult and larval mosquitoes."}, "[3]": {"system": "Ixodes scapularis nymphal ticks", "test": "Tick repellency bioassay", "assay_type": "in vivo", "excerpt": "One-hundred (100) μl of test compound was pipetted onto a cotton-tipped applicator mounted to the bottom center of a 1 dram glass shell vial using non-toxic modeling clay. A total of 8 concentrations were screened with doses ranging from 0.04–5.0%. Applicators treated with acetone only served as controls. A line was drawn around the perimeter of the vial immediate to the base of the treated cotton portion of the applicator. The area above the line was designated the “repellent zone”. The vial was allowed to air-dry 1 h before a single tick was introduced. Vials were covered with a single piece of mesh and fitted with a hollowed-out plastic cap to cover the opening of the vial; this prevented the tick from escaping but allowed for air exchange. Vials were breathed upon by investigators at 1 min intervals and a hand was placed over the test vials to provide stimuli for ticks to pass into the repellent zone. […] If the tick crossed over and remained in the “repellent zone” for ≧5 sec, the tick was deemed non-repelled by the test compound. Each test was replicated 10 times using a new tick for each test. Repellent activity was determined at 1, 2, 3, and 4 h after treatment. Probit analysis was used to determine repellent efficacy (RD50 and RD95)."}, "[4]": {"system": "I. scapularis nymphs", "test": "Tick bioassay, treated 2-dram vials, probit analysis", "assay_type": "in vivo, Ixodes scapularis", "conditions": "for Slope: 24 h exposure, probit", "excerpt": "A control treated with acetone only was run with each series.\nFor each time point, if ticks and fleas were incapable of movement, maintaining normal posture, leg coordination, ability to right themselves, or any signs of life, they were considered moribund or dead."}, "[5]": {"system": "ticks, fleas, and mosquitoes", "test": "Residual activity, general statements (Examples 9, 17)", "assay_type": "in vivo", "conditions": "ticks"}, "[6]": {"system": "Ixodes scapularis nymphs", "test": "Residual activity, aged treated vials, ticks", "assay_type": "in vivo", "conditions": "for LC90, residual activity: NE = not effective", "experimental": "(§2) Briefly, groups of 10 nymphal I. scapularis and X. cheopis fleas were used in all tests (more than a total of 5,240 nymphs and 4,860 fleas were exposed to the compounds). The inner surface of 2-dram friction cap vials were treated with the compound/acetone solution, or acetone only as a control, and left to air-dry overnight (see also, Panella et al., J. Med. Entomol., 42(3):352-358, 2005. Three to 4 holes were made in the plastic cap to allow for air exchange. Nymphal ticks and adult fleas were then placed directly into the vials using forceps. Vials containing ticks or fleas were placed in desiccators for 24 h at 21° C. and 90% RH. Morbidity and mortality was recorded at 1, 2, 4, 8, and 24 h after initial exposure."}, "[7]": {"system": "Xenopsylla cheopis adults", "test": "Residual activity, aged treated vials, fleas", "assay_type": "in vivo", "experimental": "as §2"}, "[8]": {"system": "Aedes aegypti adults", "test": "Residual activity, aged treated bottles, mosquitoes", "assay_type": "in vivo", "experimental": "as §1"}, "[9]": {"system": "fourth-instar Aedes aegypti larvae", "test": "Larval mosquito bioassay", "assay_type": "in vivo", "conditions": "Aedes aegypti larval mosquitoes, concentration of the 1 ml added to 150 ml water", "experimental": "Individual groups of 10 fourth-instar Aedes aegypti larvae were contained in 150 ml of water and exposed to […] of essential oils prepared by 2-fold serial dilutions ranging from 0.06%–5.0% in 1 ml of acetone. A control group of larvae were exposed to 1 ml of acetone only.\nIt is important to note that larval mosquitoes are tested in their natural environment, i.e., in water. The particular assays used herein involved groups of 10 larval mosquitoes in 150 ml of water. The weight percentages reported for lethal concentration for larval mosquitoes are the weight percentages added to the 150 ml water (as opposed to the final percentage of the tested compound(s) in the 150 ml water). As one of skill in the art will appreciate, test compound(s) added to a volume of water (such as, 150 ml) can be dramatically diluted depending upon the water solubility of the tested compound. […] If the tested compound is an oil (such as, carvacrol, nootkatone, or 13-hydroxy-valencene), it most likely floats on the surface of the water."}, "[10]": {"conditions": "2 weeks after treatment, NE = not effective"}, "[11]": {"conditions": "Aedes aegypti adult mosquitoes, alone, or 1:1 with carvacrol (in parenthesis)"}, "[12]": {"conditions": "1 h after compound applied to applicator"}, "[13]": {"conditions": "4 h after compound applied to applicator"}, "[14]": {"conditions": "Ixodes scapularis nymphal ticks, alone, or 1:1 with carvacrol (in parenthesis)"}}}
{"molecule": "C=C(C)C1CCC23OC2C(=O)C[C@@H](C)[C@]3(C)C1", "note": "(stereo partly shown) [Compound 17, nootkatone-1,10-epoxide]", "values": [{"measurement": "Slope", "setting": "[1]", "value": 2.326}, {"measurement": "Slope", "setting": "[2]", "value": 1.346}, {"measurement": "RD50", "setting": "[3]; 1 hr, combinations 1:1 by weight", "value": "3×10^−1 % (w/v)"}, {"measurement": "RD50", "setting": "[3]; 4 hr, combinations 1:1 by weight", "value": "0.135 % (w/v)"}, {"measurement": "Slope", "setting": "[4]", "value": 2.883}]}
{"molecule": "C=C(C=O)C1CCC2=CCC[C@@H](C)[C@]2(C)C1", "note": "(stereo partly shown) [Compound 15, valencene-13-aldehyde]", "values": [{"measurement": "residual activity", "setting": "[5]", "value": "considerable biological activity through the four week time period"}, {"measurement": "Slope, residual activity", "setting": "[6]; 1 week after treatment", "value": 2.859}, {"measurement": "LC90, residual activity", "setting": "[6]; 1 week after treatment", "value": "0.072 percent concentration, wt:vol"}, {"measurement": "Slope, residual activity", "setting": "[7]; 1 week after treatment", "value": 3.211}, {"measurement": "LC90, residual activity", "setting": "[8]; 1 week after treatment", "value": "0.027 percent concentration, wt:vol"}, {"measurement": "Slope, residual activity", "setting": "[8]; 1 week after treatment", "value": 3.392}, {"measurement": "Slope, residual activity", "setting": "[8]; 2 weeks after treatment", "value": 3.136}, {"measurement": "LC90, residual activity", "setting": "[8]; [10]", "value": "0.037 percent concentration, wt:vol"}, {"measurement": "Slope", "setting": "[1]", "value": 5.366}, {"measurement": "Slope", "setting": "[2]", "value": 8.714}, {"measurement": "Slope", "setting": "[4]", "value": 2.755}]}
{"molecule": "C=C(CO)C1CCC2=CCC[C@@H](C)[C@]2(C)C1", "note": "(stereo partly shown) [Compound 10, 13-hydroxy-valencene]", "values": [{"measurement": "residual activity", "setting": "[5]", "value": "considerable biological activity through the four week time period"}, {"measurement": "Slope, residual activity", "setting": "[6]; 1 week after treatment", "value": 3.005}, {"measurement": "LC90, residual activity", "setting": "[6]; 1 week after treatment", "value": "0.019 percent concentration, wt:vol"}, {"measurement": "Slope, residual activity", "setting": "[6]; 2 weeks after treatment", "value": 1.781}, {"measurement": "LC90, residual activity", "setting": "[6]; 2 weeks after treatment", "value": "0.044 percent concentration, wt:vol"}, {"measurement": "Slope, residual activity", "setting": "[6]; 4 weeks after treatment", "value": 1.285}, {"measurement": "Slope, residual activity", "setting": "[7]; 1 week after treatment", "value": 2.218}, {"measurement": "Slope, residual activity", "setting": "[7]; 2 weeks after treatment", "value": 2.442}, {"measurement": "LC90, residual activity", "setting": "[8]; 1 week after treatment", "value": "0.058 percent concentration, wt:vol"}, {"measurement": "Slope, residual activity", "setting": "[8]; 1 week after treatment", "value": 3.286}, {"measurement": "Slope, residual activity", "setting": "[8]; 2 weeks after treatment", "value": 6.932}, {"measurement": "LC90, residual activity", "setting": "[8]; [10]", "value": "0.021 percent concentration, wt:vol"}, {"measurement": "Slope, residual activity", "setting": "[8]; 4 weeks after treatment", "value": 2.645}, {"measurement": "LC90, residual activity", "setting": "[8]; 4 weeks after treatment, NE = not effective", "value": "0.04 percent concentration, wt:vol"}, {"measurement": "LC50 (1 h)", "setting": "[9]", "value": "5.132 % (wt:vol)"}, {"measurement": "LC50 (24 h)", "setting": "[9]", "value": "0.975 % (wt:vol)"}, {"measurement": "LC90 (1 hr)", "setting": "[9]", "value": "13.425 % (wt:vol)"}, {"measurement": "LC90 (24 h)", "setting": "[9]", "value": "1.23 % (wt:vol)"}, {"measurement": "LC50 (24 h)", "setting": "[9]; listed as 13-hydroxy-valencene", "value": "1.23 % (wt:vol)"}, {"measurement": "Slope", "setting": "[1]", "value": 3.143}, {"measurement": "Slope", "setting": "[2]", "value": 2.094}, {"measurement": "LC50 (15 min)", "setting": "[2]; [11]", "value": "0.077 % (wt:vol)"}, {"measurement": "LC50 (24 h)", "setting": "[2]; [11]", "value": "0.0034 % (wt:vol)"}, {"measurement": "LC90 (15 min)", "setting": "[2]; [11]", "value": "0.373 % (wt:vol)"}, {"measurement": "LC90 (24 h)", "setting": "[2]; [11]", "value": "0.014 % (wt:vol)"}, {"measurement": "Slope (±SEM)", "setting": "[3]; 1 h", "value": "1.332 (±0.313)"}, {"measurement": "RD50", "setting": "[3]; [12]", "value": "0.095 % (wt:vol)"}, {"measurement": "RD95", "setting": "[3]; [12]", "value": "1.637 % (wt:vol)"}, {"measurement": "Slope (±SEM)", "setting": "[3]; 4 h", "value": "1.066 (±0.307)"}, {"measurement": "RD50", "setting": "[3]; [13]", "value": "0.114 % (wt:vol)"}, {"measurement": "RD95", "setting": "[3]; [13]", "value": "3.993 % (wt:vol)"}, {"measurement": "Slope", "setting": "[4]", "value": 2.562}, {"measurement": "LC50 (1 h)", "setting": "[4]; [14]", "value": "0.017 % (wt:vol)"}, {"measurement": "LC50 (24 h)", "setting": "[4]; [14]", "value": "0.0054 % (wt:vol)"}, {"measurement": "LC90 (1 hr)", "setting": "[4]; [14]", "value": "0.065 % (wt:vol)"}, {"measurement": "LC90 (24 h)", "setting": "[4]; [14]", "value": "0.014 % (wt:vol)"}]}
